Source: patent US9585854B2, “N-acetyl-L-cysteine for use in in vitro fertilization” (IASOMAI AB, priority 2012, dated 2017)
Values joined by “and” are separate entries in the source; they are usually repeats but may differ in a detail not shown here. Equal values may be shown once.

Key:
[1] = tested on: human spermatozoa; test: human sperm motility bioassay (toxicity test); format: cell-based
Protocol: The eventual occurrence of NAC embryotoxicity was preliminary tested.
Assessments of human sperm motility were performed on fresh samples taken from 3 healthy donors with good seminal parameters including sperm motility and velocity. Migration or “Swim-up” on human sperm preparation medium was applied to select motile spermatozoa. After selection each semen sample was divided into 3 aliquots transferred to Eppendorf tubes. In addition to one control tube, two tubes had NAC added at concentrations of 100 and 1,000 nM. Tubes were incubated in a 5% CO2 environment, with constant temperature and humidity conditions for 24 hours. Sperm motility was assessed using a contrast phase microscope at a 400 times magnification after 1, and 24 hours of exposure to NAC. Assessment was performed over a fixed time interval of 2 minutes. Nine samples were assessed for sperm motility and velocity by 36 measurements (2 measurements at 1 and 24 h per sample).

[2] = tested on: embryo implantation; test: embryo implantation in oxytocin-treated mice; format: in vivo; conditions: oxytocin-treated mice
Text: Indeed, in mice, NAC was confirmed to support embryo implantation. In the animal model, embryo implantation rate was decreased when the mice were given oxytocin.
In mice, NAC was confirmed to support embryo implantation. In the animal model, embryo implantation rate was decreased when the mice were given oxytocin.

[3] = tested on: Isolated uteri from virgin Wistar rats; test: isolated organ bath study of uterine contractions; parameters: species or system rat
Protocol: Animals were kept at 22° C., housed 3 per cage and fed ad libitum. Isolated uteri from virgin Wistar rats (200-280 g) in estrous, which was determined by examination of a daily vaginal smear, were used.
Protamine sulphate (PS) and NAC were dissolved in pure water.
All rats were sacrificed by cervical dislocation. The uterine horns were excised, carefully cleaned and mounted vertically in a 10 ml volume organ bath containing De Jalon's solution (NaCl 154 mM, KCl 5.6 mM, CaCl2×2H2O 0.41 mM, NaHCO 2 5.9 mM and glucose 2.8 mM), under 1 g tension, aerated with 95% oxygen and 5% carbon dioxide at 37° C. […] After 10 min increasing concentrations of PS were added until the total cessation of contractions was observed.
Myometrial tension was recorded isometrically with an organ bath and transducer.
Effects of treatments on uterine contractions were calculated as percentages for control, untreated and contracting conditions. Each data value is expressed as the mean±SEM. differences between groups were analyzed by two-way ANOVA. EC50 values were compared using one-way ANOVA

[4] = tested on: uterine contractions; test: clinical case: intravenous NAC prior to embryo transfer; format: in vivo, human; conditions: patient, NAC 50 mg/kg intravenous infusion 60 min
Protocol: The very first case of clinical application of NAC prior to embryo transfer was recently documented. NAC was administered in a concentration of 50 mg/kg to a patient who had previously undergone five embryo transfers involving a total number of 8 good-quality embryos. Immediately before embryo transfer, the presence of increased uterine contractile activity was confirmed by ultrasound. NAC 50 mg/kg body weight was administered in intravenous infusion for 60 min. Embryo transfer was carried out 60 min from the end of the 60 min NAC 50 mg/kg body weight administration. Both before connecting the infusion and directly before embryo transfer, a transvaginal sagittal scan recording was performed.

[5] = tested on: pregnancy; test: pulsed oral administration of NAC to patients; format: in vivo, human; conditions: three consecutive days a week
Protocol: Below is the result from giving pulsed administration of NAC to 15 patients, 8 of which became pregnant. According to this, NAC was administered to patients per os for 3 months or more according to the following schedule: 600 mg three times a day, three consecutive days a week. […] 7, no. 4, pp. 355-359, 2007.]; (2) splitting the total dose in 3 is simple for patients and, with reference to the known NAC pharmacokinetics [[…] and […], “Pharmacokinetic and pharmacodynamic studies of N-acetylcysteine, a potential chemopreventive agent during a phase I trial,” Cancer Epidemiology Biomarkers and Prevention, vol. 4, no. 3, pp. 245-251, 1995.], grants a nearly constant plasma level of the drug; (3) the four-day medication-free interval provides a washout period useful to limit the reported decrease of NAC plasma level observed during prolonged treatments. According to examples described in the specification 15 patients were treated with pulsed administration of N-acetyl-L-cysteine for use in IVF orally in a dose of 600 mg three times a day during three consecutive days followed by four days of interruption during 3 months or more.

[6] = tested on: IVF; test: NAC administration in connection with IVF treatment (clinical outcome); format: in vivo, human
Text: To date, NAC has not been considered a drug in fertility treatment although it has been used for oral treatment of endometrioses as described in EP 2305238. In that study no conclusions about pregnancies were made. To the contrary when being treated for endometriosis it was not expected that any pregnancies could occur. […] This was one of the reasons why the present inventors started investigating whether NAC could be used in connection with IVF.
Already from the start of IVF it has been a problem that the clinical outcome in IVF treatment is low.
The composition of the present invention, comprising NAC for the treatment of IVF according to one embodiment to be administered intravenously at a dose between approximately 50 and 150 mg/kg/day.
In still another embodiment of the present invention the composition comprises NAC to be administered orally at a dose of approximately 30-45 mg/kg/day.

[7] = cited from earlier work
[8] = thiol residue easily oxidized by oxygen, light and other radiations; cited from earlier work
[9] = tested on: 1-cell rabbit embryos; test: rabbit embryo bioassay (embryotoxicity)
Text: To verify the embryotoxicity of NAC the application of two embryotoxicity techniques—rabbit embryo bioassay and human sperm motility bioassay—were used.

[10] = concentrations up to 50-fold therapeutic blood concentrations

**Q.** For CC(=O)N[C@@H](CS)C(=O)O [NAC, N-acetyl-L-cysteine], which “adverse influence on human spermatozoa” value [1] is on record?
**A.** Its value is “failed to show an adverse influence”.

**Q.** And the “human sperm motility or velocity compared to controls” value ([1]; NAC 100 and 1,000 nM, 1 and 24 hours of exposure)?
**A.** Its value is “no effects”.

**Q.** And the embryotoxic effect [1, 10]?
**A.** Its embryotoxic effect is “failed to detect an embryotoxic effect”.

**Q.** What about the implantation rates [2] of the same compound?
**A.** Its implantation rates is “dose-dependently restored”.

**Q.** What about the “effect of pre-treatment on PS-induced relaxation” value ([3]; NAC pre-treatment 1 μg/ml, spontaneously active uteri) of the same compound?
**A.** The value was “increased PS-induced relaxation”.

**Q.** And the “effect of pre-treatment on PS-induced relaxation” value ([3]; calcium ion-induced uterine contractions)?
**A.** The value was “modulated PS-induced relaxation”.

**Q.** What about the “amplitude of uterine contractions” value [4] of the same compound?
**A.** Its value is “apparent decrease in their amplitude”.

**Q.** What about the “uterine contractions directly before embryo transfer” value ([4]; from 10 contractions per 3 min before infusion, transvaginal scan) of the same compound?
**A.** Its value is “five”.

**Q.** And the “pregnancy after months post NAC treatment” value ([5]; individual patients 1-8, pulsed oral NAC 600 mg three times a day)?
**A.** Its value is 14 months and 3 months and 1 months (2×) and 19 months and 8 months and 6 months and 0 months.

**Q.** And the “patients who became pregnant” value ([5]; of 15 patients, per os 600 mg three times a day, 3 months or more)?
**A.** The value was 8.

**Q.** And the live births ([6]; NAC preferably a few days prior to IVF treatment)?
**A.** The live births was “higher percentage of live births”.

**Q.** And the “effectiveness in IVF” value ([6]; intravenous, lower limit approximately 50 mg/kg/day)?
**A.** Its value is “effective in IVF”.

**Q.** What about the IVF outcome ([6]; one person who had taken NAC orally for endometriosis, two previous IVF trials failed) of the same compound?
**A.** Its IVF outcome is “successful IVF treatment”.

**Q.** What about the “effect in connection with IVF” value ([6]; oral, approximately 30-45 mg/kg/day) of the same compound?
**A.** The value was “give effect in connection with IVF”.

**Q.** What about the “NAC plasma level after prolonged treatments” value ([7]; Pendyala and Creaven 1995) of the same compound?
**A.** The value was “decrease in NAC plasma level”.

**Q.** What about the “diffusion in tissues and cells” value ([7]; in vivo) of the same compound?
**A.** The value was “freely diffuses in almost all tissues and cells”.

**Q.** And the “peak concentration in plasma reached in” value ([7]; in vivo)?
**A.** Its value is “about one”.

**Q.** And the half-life ([7]; plasma)?
**A.** The half-life was “about three”.

**Q.** What about the stability [8] of the same compound?
**A.** Its stability is “not a stable molecule”.

**Q.** And the “percentage of hatched rabbit blastocysts” value [9]?
**A.** The value was “not to decrease the percentage of hatched rabbit blastocysts”.

**Q.** And the embryotoxic effect [9, 10]?
**A.** The embryotoxic effect was “failed to detect an embryotoxic effect”.
